Measurements published in US12157741B2, “Macrocyclic inhibitors of DYRK1A” (DANA-FARBER CANCER INSTITUTE, INC., priority 2018, dated 2024).
Like-named read-outs stand apart in the source and are kept apart here.

Legend:
various enzymes [1] = target: various enzymes (Homo sapiens, UniProt Q14004); settings: CDC2L5; 1 uM
Description: (§1) Ambit profiling from Eurofins (formerly Discoverx) was conducted in accordance with the manufacturer's instructions.

various enzymes [2] = target: various enzymes (Homo sapiens, UniProt O94921); settings: PFTK1; 1 uM
Description: as §1

various enzymes [3] = target: various enzymes (Homo sapiens, UniProt P00533, DEL747-752/P753S)
Description: as §1

various enzymes [4] = target: T1, various enzymes (Homo sapiens, UniProt Q08881); settings: ITK; 1 uM
T1 sequence (Q08881 1-620): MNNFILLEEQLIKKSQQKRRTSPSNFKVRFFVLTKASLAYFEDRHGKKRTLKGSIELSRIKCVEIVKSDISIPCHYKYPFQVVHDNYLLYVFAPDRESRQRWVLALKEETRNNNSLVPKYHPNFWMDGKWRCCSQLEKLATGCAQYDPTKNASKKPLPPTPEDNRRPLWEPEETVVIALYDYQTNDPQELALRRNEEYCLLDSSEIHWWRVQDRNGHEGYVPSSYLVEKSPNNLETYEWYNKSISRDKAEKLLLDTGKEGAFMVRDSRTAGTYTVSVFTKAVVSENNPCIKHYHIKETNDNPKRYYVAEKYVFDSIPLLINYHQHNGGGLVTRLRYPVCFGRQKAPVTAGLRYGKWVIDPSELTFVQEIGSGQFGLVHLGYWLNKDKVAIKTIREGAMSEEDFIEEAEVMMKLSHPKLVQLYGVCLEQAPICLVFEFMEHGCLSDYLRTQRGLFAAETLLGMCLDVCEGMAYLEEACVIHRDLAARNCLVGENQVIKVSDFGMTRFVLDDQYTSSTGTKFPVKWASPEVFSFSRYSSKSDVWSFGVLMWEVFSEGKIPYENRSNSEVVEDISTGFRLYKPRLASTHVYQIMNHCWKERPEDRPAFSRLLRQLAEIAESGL
Description: as §1

various enzymes [5] = target: various enzymes (Homo sapiens, UniProt Q9UK32); settings: 1 uM
Description: as §1

various enzymes [6] = target: various enzymes (Homo sapiens, UniProt P00533, G719C)
Description: as §1

various enzymes [7] = target: T2, various enzymes (Homo sapiens, UniProt Q8IVH8); settings: MAP4K3; 1 uM
T2 sequence (Q8IVH8 1-894): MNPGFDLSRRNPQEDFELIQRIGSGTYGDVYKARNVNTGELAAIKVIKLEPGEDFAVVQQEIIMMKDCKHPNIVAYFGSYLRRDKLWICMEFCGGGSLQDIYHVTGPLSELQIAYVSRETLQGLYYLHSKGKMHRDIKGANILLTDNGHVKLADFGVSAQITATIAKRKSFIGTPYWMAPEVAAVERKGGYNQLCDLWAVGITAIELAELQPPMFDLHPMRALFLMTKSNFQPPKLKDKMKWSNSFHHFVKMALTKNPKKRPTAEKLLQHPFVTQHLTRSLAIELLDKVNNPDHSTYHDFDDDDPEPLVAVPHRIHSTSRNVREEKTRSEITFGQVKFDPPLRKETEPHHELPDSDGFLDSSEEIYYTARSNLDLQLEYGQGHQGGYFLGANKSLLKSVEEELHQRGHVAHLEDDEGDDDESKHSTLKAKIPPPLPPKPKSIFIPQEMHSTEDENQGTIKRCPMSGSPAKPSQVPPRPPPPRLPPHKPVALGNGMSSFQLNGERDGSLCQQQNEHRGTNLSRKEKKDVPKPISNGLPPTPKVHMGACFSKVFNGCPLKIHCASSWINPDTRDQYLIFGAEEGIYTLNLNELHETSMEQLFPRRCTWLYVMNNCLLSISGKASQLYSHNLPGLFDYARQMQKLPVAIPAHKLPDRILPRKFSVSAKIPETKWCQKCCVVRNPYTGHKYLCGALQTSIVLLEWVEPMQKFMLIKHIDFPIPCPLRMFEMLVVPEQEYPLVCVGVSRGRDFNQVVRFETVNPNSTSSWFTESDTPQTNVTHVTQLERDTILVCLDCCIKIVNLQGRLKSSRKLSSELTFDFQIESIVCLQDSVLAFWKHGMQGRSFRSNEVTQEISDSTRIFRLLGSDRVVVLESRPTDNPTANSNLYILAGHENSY
Description: as §1

various enzymes [8] = target: various enzymes (Homo sapiens, UniProt P00533, G719S)
Description: as §1

various enzymes [9] = target: various enzymes (Homo sapiens, UniProt P23458); settings: 1 uM
Description: as §1

various enzymes [10] = target: various enzymes (Homo sapiens, UniProt Q00526); settings: CDK3; 1 uM
Description: as §1

various enzymes [11] = target: various enzymes (Homo sapiens, UniProt Q9H4A3); settings: WNK1; 1 uM
Description: as §1

various enzymes [12] = target: various enzymes (Homo sapiens, UniProt P08581); settings: MET; 1 uM
Description: as §1

various enzymes [13] = target: various enzymes (Homo sapiens, UniProt P53779); settings: JNK3; 1 uM
Description: as §1

various enzymes [14] = target: various enzymes (Homo sapiens, UniProt Q9Y6E0); settings: MST3; 1 uM
Chain of various enzymes (Homo sapiens, UniProt Q9Y6E0) (Q9Y6E0 whole entry): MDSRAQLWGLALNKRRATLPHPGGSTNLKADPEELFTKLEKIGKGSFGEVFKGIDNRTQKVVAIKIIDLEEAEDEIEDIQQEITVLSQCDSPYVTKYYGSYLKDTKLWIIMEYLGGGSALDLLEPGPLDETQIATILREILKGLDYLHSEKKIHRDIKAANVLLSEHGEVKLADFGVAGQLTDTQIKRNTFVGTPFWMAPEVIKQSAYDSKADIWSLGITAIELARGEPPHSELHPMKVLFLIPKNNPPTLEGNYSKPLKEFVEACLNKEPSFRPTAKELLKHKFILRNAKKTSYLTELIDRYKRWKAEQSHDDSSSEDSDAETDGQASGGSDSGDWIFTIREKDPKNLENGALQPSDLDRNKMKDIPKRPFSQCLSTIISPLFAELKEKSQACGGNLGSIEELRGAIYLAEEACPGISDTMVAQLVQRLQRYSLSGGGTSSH
Description: as §1

Chain of various enzymes (Homo sapiens, UniProt Q9UK32) (Q9UK32 whole entry): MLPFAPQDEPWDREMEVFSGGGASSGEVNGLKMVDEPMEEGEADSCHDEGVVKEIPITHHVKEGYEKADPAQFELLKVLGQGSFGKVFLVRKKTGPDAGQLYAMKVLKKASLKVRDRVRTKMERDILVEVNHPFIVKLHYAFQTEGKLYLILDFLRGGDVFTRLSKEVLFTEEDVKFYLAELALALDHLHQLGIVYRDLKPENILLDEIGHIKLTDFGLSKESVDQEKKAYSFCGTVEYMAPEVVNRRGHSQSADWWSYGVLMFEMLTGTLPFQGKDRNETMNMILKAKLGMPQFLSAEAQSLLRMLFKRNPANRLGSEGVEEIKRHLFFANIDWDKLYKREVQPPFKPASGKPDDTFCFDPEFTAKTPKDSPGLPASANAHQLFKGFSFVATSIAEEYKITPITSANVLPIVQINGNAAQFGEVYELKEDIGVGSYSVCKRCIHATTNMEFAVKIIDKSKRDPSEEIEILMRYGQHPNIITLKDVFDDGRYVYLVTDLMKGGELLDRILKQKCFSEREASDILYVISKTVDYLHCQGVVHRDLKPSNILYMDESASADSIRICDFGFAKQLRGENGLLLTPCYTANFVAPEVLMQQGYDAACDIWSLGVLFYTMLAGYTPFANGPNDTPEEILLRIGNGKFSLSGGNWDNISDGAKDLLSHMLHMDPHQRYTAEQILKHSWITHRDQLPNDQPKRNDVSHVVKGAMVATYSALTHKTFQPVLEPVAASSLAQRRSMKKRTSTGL
Chain of various enzymes (Homo sapiens, UniProt P23458) (P23458 whole entry): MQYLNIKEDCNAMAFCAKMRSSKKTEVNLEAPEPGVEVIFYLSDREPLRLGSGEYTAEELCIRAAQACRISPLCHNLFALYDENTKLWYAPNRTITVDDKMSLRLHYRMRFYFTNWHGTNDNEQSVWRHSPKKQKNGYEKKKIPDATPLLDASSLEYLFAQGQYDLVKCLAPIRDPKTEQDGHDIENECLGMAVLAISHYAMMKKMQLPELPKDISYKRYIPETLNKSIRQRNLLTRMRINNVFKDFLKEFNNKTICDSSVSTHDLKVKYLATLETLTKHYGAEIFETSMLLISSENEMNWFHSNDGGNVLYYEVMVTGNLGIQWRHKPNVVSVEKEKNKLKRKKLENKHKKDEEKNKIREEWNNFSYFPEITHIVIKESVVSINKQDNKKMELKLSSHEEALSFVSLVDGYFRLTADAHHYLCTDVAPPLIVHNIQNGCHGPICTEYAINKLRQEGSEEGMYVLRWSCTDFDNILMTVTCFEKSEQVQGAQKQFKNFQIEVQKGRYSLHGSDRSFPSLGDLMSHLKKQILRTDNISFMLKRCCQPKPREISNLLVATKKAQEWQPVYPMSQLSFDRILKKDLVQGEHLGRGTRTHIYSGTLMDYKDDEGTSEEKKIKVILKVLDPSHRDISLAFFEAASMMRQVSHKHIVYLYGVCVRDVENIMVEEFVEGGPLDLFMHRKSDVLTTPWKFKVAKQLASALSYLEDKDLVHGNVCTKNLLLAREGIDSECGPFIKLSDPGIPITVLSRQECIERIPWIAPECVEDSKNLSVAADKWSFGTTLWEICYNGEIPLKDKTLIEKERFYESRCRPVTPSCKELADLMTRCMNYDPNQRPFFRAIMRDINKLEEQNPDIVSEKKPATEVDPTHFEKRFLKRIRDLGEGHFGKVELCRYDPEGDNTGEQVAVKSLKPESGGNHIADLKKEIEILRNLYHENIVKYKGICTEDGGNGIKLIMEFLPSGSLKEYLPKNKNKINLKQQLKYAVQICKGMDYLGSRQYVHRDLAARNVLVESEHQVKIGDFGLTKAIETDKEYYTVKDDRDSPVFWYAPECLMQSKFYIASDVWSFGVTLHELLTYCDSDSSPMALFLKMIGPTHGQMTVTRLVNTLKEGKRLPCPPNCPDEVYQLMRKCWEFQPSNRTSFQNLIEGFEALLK
Chain of various enzymes (Homo sapiens, UniProt O94921) (O94921 whole entry): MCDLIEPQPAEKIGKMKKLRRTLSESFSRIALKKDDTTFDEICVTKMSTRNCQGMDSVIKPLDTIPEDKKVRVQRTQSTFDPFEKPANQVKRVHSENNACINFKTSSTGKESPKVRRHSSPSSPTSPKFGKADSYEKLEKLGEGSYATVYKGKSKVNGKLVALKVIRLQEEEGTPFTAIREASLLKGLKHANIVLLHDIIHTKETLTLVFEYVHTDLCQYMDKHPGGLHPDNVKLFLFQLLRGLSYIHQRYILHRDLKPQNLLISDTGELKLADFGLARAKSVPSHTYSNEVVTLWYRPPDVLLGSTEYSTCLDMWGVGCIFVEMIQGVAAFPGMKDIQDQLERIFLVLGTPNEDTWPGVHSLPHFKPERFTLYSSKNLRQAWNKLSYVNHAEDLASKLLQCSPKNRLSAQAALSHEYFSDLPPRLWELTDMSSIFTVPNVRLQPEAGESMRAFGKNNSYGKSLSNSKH
Chain of various enzymes (Homo sapiens, UniProt P08581) (P08581 25-1390): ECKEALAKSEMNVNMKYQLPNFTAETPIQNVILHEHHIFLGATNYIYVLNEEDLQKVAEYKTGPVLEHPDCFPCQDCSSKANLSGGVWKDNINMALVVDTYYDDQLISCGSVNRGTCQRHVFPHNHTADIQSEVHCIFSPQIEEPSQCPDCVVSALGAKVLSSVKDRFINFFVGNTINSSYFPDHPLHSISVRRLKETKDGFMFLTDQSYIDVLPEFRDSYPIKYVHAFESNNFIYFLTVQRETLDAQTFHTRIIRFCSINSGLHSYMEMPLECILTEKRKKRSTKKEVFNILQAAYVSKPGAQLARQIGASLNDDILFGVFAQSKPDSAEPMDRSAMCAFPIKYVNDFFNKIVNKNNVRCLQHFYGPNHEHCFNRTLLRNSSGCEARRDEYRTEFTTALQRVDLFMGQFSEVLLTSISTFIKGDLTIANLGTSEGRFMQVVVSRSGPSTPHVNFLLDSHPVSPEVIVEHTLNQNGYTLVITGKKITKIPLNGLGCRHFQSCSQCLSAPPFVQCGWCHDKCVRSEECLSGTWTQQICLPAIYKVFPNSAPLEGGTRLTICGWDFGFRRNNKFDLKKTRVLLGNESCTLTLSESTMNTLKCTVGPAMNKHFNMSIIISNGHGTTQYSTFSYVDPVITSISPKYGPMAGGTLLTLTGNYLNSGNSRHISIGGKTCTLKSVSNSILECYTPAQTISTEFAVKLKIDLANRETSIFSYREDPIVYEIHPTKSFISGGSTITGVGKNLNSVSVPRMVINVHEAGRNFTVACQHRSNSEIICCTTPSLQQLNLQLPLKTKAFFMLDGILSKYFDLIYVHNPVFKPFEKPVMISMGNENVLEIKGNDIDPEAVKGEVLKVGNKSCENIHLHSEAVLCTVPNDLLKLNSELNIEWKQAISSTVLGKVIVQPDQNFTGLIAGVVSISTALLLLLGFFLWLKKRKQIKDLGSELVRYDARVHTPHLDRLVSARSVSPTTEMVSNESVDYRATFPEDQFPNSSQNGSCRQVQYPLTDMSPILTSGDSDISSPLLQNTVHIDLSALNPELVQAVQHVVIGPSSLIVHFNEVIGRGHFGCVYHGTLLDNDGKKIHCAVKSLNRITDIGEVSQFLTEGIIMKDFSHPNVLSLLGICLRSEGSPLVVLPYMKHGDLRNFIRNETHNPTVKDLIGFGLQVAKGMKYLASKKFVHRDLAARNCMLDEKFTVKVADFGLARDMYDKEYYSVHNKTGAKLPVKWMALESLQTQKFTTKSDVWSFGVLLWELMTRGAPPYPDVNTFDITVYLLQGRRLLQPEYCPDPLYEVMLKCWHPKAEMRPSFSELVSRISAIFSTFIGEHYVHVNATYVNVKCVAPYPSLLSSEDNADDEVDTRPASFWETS
Chain of various enzymes (Homo sapiens, UniProt P53779) (P53779 whole entry): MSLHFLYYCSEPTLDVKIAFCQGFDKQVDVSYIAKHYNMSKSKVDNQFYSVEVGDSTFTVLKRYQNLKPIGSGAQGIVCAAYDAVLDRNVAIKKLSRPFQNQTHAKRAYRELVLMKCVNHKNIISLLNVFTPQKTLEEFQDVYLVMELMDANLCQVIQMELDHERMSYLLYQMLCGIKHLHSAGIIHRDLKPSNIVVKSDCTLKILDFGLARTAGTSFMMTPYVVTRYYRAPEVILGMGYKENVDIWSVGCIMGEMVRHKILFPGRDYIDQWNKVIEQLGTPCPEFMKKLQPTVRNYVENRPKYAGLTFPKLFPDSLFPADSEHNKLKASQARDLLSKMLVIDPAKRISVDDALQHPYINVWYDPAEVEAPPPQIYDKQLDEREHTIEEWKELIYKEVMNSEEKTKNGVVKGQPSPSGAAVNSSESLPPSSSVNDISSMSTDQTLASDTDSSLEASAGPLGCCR
Chain of various enzymes (Homo sapiens, UniProt Q00526) (Q00526 whole entry): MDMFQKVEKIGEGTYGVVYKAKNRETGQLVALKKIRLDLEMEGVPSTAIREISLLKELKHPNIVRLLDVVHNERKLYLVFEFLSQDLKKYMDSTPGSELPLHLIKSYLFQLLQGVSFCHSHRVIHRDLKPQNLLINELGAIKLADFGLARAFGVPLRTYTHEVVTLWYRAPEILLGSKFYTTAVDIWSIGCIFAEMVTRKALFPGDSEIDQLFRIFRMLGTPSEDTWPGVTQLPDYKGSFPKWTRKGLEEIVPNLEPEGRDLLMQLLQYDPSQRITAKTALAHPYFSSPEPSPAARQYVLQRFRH

| SMILES | Ambit profiling (various enzymes [1]) | Ambit profiling (various enzymes [2]) | Ambit profiling (various enzymes [3]; EGFR(L747-S752del, P753S), 1 uM) | Ambit profiling (various enzymes [4]) | Ambit profiling (various enzymes [5]; RSK4(Kin.Dom.1-N-terminal)) | Ambit profiling (various enzymes [5]; RSK4(Kin.Dom.2-C-terminal)) | Ambit profiling (various enzymes [6]; EGFR(G719C), 1 uM) | Ambit profiling (various enzymes [7]) | Ambit profiling (various enzymes [8]; EGFR(G719S), 1 uM) | Ambit profiling (various enzymes [9]; JAK1(JH1domain-catalytic)) | Ambit profiling (various enzymes [9]; JAK1(JH2domain-pseudokinase)) | Ambit profiling (various enzymes [10]) | Ambit profiling (various enzymes [11]) | Ambit profiling (various enzymes [12]) | Ambit profiling (various enzymes [13]) | Ambit profiling (various enzymes [14]) | Ambit profiling (various enzymes [3]) | Ambit profiling (various enzymes [6]) | Ambit profiling (various enzymes [8]) |
| --- | --- | --- | --- | --- | --- | --- | --- | --- | --- | --- | --- | --- | --- | --- | --- | --- | --- | --- | --- |
| CN1Cc2nn(C)cc2-c2cnc3[nH]cc(c3c2)-c2cnn(c2)CCCC1=O [Compound 41, (Z)-31,5-dimethyl-11H,21H,31H-5-aza-2(3,5)-pyrrolo[2,3-b]pyridina-1(4,1),3(4,3)-dipyrazolacyclononaphan-6-one] | 100 | 69 | 100 | 65 | 5.6 | 63 | 100 | 7.8 | 100 | 18 | 9.1 | 50 | 95 | 30 | 0.75 | 39 |  |  |  |
| CN1Cc2nn(C)c(C#N)c2-c2cnc3[nH]cc(c3c2)-c2cn(nc2C(F)(F)F)CCCC1=O [Compound 48, (Z)-31,5-dimethyl-6-oxo-13-(trifluoromethyl)-11H,21H,31H-5-aza-2(3,5)-pyrrolo[2,3-b]pyridina-1(4,1),3(4,3)-dipyrazolacyclononaphane-35-carbonitrile] | 87 | 91 |  | 100 | 7.5 | 69 |  | 77 |  | 100 | 100 | 100 | 100 | 48 | 14 | 86 | 74 | 86 | 71 |
